In patent publication US20250235456A1, “METHODS OF USE FOR AZA-QUINAZOLINE COMPOUNDS” (Iambic Therapeutics, Inc., priority 2024, published 2025) one finds IC50 data, which are given here for two molecules.

Where two headings read alike, the source gives them in different places.

The target in one test is CDK1/Cyclin B1 (Homo sapiens (Human), UniProt P06493). Briefly: CDK1/Cyclin B1 ADP-Glo Kinase Assay. The class given is biochemical. In outline:
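Purchased CDK1/Cyclin B1 was pre-incubated 30 min with inhibitor at room temperature, then reacted 90 min at room temperature after adding ATP-containing substrate. ADP formed was read by two-step ADP-Glo luminescence. IC50 came from a 4-parameter fit of fractional velocity versus inhibitor concentration.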
Background: ADP-Glo turns the ADP formed in a reaction into a luminescent signal.

Test [1] concerns the target CDK2/Cyclin E1 full length (Homo sapiens (Human), UniProt P24941). Briefly: CDK2/Cyclin E1 Full length ADP-Glo Kinase Assay. The note with it: read-out: CDK2/CyclinE1 IC50. It is filed as biochemical. On the procedure: CDK2/Cyclin E1 Full length ADP-Glo Kinase Assay
The purpose of CDK2/Cyclin El assay is to evaluate the inhibition (% inhibition and IC50 values) of small molecule inhibitors by using a Luminescent based ADP-Glo assay. CDK2/Cyclin El full length catalyzes the production of ADP from ATP. ADP-Glo assay monitors ADP producing biochemical reactions. ADP-Glo is performed in 2 steps upon completion of kinase reaction: a combined termination of kinase reaction and depletion of remaining ATP in the first step, and conversion of generated ADP to ATP and the newly produced ATP to light output using luciferase/luciferin reaction in the second step. The luminescent signal generated is proportional to the ADP concentration produced and is correlated with the kinase activity. CDK2/Cyclin E1 was purchased from Eurofins (Cat 14-475M). […] The assay was initiated with the addition of ATP-containing substrate solution, following a 30-minute pre-incubation of enzyme and inhibitor at room temperature in the reaction mixture. The reaction was stopped after 90 minutes at room temperature by the addition of 10 μL of ADP-GLO Reagent. After a 90 minute incubation, 20 uL of Kinase Detection Reagent was added. Samples were incubated for 40 minutes, after which plate well luminescence was measured on a Envision microplate reader. The IC50 determinations were made from a plot of the fractional velocity as a function of inhibitor concentration fit to the 4 parameters IC50 equation.

A further test has as its target CDK4/Cyclin D1 (Homo sapiens (Human), UniProt P11802). In words: CDK4/Cyclin D1 CHEF Assay. It is filed as biochemical. The note with it: AQT; read-out: CDK4/CyclinD1 AQT IC50. In outline: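 Peptide substrate AQT0258 carries a Sox fluorophore whose Mg(II)-dependent fluorescence (ex 360/em 485 nm) rises on phosphorylation. Enzyme and inhibitor pre-incubated 30 min at 22 °C, substrate added, reaction run 3 h at 22 °C. IC50 from 4-parameter fit of fractional velocity vs inhibitor concentration.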

Another test deals with CDK6/Cyclin D3 (Homo sapiens (Human), UniProt Q00534). Briefly: CDK6/Cyclin D3 ADP-Glo Kinase Assay. It is filed as biochemical. The note with it: read-out: CDK6/CyclinD3 IC50. In outline: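 Commercial CDK6/Cyclin D3 pre-incubated with inhibitor 30 min at room temperature, then reaction started with ATP/substrate and run 90 min at room temperature. ADP formed measured by ADP-Glo luminescence; IC50 from fractional velocity vs inhibitor concentration fit to a 4-parameter equation.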

The test system of another test is MCF-7 cells. In words: Cell Growth Inhibition, MCF-7 (CellTiterGlo, 6 days). It is filed as cell-based. An excerpt:
(§1) MCF-7 and OVCAR-3 cells were used to evaluate the anti-proliferation activity of the CDK inhibitors. MCF-7 (ATCC, HTB-22) cells are epithelial cells from a patient with ER+ metastatic adenocarcinoma. OVCAR-3 (ATCC, HTB-161) cells were derived from malignant ascites of a patient with ovarian cancer and are known to have CCNE1 amplification. Both cell lines were maintained in RPMI media supplemented with 10% fetal bovine serum. For cell growth inhibition assay, CDK inhibitors in DMSO solution were dispensed with either Echo 655 (Beckman Coulter) or Tecan D300e (TIP) into 384-well plates (Corning #3765) and the 384-well plates were UV-sterilized prior to the assay. The inhibitors were typically tested in the 10-10,000 nM concentration range with half-log serial dilutions. MCF-7 or OVCAR-3 (500 cells/30 μL/well) were added to each well using Multidrop Combi (ThermoFisher) using standard cassettes. The assay plates with cells were cultured at 37° C., 5% CO2 for 6 days. At the end of the 6-day treatment, 30 μL of CellTiterGlo 2.0 (Promega) was added to each well and the luminescent signal was read using CLARIOstar plus (BMG). The percentage of cell growth inhibition (% CGI) was calculated using the following formula % CGI=100-100×luminescencesample/luminescenecontrol. The half maximal inhibitory concentration (IC50) was determined by nonlinear curve fitting (four parameters, variable slope).

For the next test, the system named is OVCAR-3 cells. Briefly: Cell Growth Inhibition, OVCAR-3 (CellTiterGlo, 6 days). It is filed as cell-based.
Text: as §1

CDK4/Cyclin D1, sequence (P11802 whole entry, species assumed): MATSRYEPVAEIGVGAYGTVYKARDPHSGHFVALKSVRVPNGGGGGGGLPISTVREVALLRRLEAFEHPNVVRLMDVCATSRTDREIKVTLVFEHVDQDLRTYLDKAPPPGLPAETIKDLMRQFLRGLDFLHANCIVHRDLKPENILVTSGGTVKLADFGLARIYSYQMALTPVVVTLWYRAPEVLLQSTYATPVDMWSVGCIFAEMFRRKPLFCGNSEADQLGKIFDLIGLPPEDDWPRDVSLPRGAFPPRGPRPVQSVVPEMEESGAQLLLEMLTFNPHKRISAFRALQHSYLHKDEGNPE
CDK4/Cyclin D1, sequence (P24385 whole entry partner, species assumed): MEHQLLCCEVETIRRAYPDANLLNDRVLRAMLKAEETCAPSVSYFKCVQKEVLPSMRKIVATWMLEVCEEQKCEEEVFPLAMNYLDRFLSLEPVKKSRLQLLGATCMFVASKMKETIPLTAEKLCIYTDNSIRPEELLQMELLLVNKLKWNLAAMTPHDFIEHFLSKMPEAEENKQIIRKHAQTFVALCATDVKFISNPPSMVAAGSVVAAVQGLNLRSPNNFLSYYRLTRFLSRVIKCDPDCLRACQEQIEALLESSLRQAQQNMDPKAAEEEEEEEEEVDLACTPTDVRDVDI
CDK1/Cyclin B1, sequence (P06493 whole entry): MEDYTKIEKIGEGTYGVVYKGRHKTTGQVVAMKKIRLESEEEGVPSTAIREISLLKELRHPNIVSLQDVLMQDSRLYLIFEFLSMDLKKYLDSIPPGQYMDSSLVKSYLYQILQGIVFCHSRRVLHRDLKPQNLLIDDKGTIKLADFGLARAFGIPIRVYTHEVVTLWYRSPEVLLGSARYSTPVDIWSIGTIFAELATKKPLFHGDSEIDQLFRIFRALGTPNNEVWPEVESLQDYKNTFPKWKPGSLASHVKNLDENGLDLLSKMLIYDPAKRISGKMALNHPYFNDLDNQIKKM
CDK1/Cyclin B1, sequence (P14635 whole entry partner): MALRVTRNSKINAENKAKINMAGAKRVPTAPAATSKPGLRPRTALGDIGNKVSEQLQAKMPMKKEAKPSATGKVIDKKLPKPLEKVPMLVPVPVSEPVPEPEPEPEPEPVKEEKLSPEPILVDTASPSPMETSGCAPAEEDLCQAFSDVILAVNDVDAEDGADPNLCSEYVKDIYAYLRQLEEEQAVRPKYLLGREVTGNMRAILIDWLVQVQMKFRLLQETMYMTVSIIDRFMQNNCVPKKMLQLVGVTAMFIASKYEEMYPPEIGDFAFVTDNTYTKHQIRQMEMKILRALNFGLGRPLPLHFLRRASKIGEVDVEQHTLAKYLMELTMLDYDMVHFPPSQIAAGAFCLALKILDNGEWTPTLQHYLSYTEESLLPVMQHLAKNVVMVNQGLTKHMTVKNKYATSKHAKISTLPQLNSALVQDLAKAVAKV
CDK6/Cyclin D3, sequence (Q00534 whole entry): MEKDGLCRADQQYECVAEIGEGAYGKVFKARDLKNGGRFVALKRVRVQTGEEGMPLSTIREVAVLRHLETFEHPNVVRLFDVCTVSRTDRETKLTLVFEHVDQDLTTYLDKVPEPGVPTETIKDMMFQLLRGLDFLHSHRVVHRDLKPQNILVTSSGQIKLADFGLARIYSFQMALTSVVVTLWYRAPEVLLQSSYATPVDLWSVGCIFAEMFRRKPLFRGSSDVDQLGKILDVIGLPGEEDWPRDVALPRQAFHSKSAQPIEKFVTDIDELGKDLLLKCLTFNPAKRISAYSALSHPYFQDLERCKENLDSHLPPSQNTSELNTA
CDK6/Cyclin D3, sequence (P30281 whole entry partner): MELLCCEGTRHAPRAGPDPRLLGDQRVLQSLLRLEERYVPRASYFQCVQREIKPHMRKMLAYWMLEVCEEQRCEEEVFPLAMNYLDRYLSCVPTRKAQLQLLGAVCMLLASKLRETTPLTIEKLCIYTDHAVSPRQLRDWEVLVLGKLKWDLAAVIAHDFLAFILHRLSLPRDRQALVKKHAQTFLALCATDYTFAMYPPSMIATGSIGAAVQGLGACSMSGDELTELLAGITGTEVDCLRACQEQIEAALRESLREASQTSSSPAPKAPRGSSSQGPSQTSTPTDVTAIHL

“1-cyclopropyl-3-(6-methyl-2-((1-(methylsulfonyl)piperidin-4-yl)amino)pyrido[3,4-d]pyrimidin-8-yl)cyclobutan-1-ol [Compound 85]”: the IC50 at CDK1/Cyclin B1 was below 200 nM; in test [1] it was below 200 nM; at CDK4/Cyclin D1 it was below 200 nM; on CDK6/Cyclin D3, below 200 nM; in the test with MCF-7 cells, 500 to 2000 nM; in the test on OVCAR-3 cells, 500 to 2000 nM.
For the molecule `Cc1cc2cnc(NC3CCN(S(C)(=O)=O)CC3)nc2c(C2CC(O)(C(F)F)C2)n1` (centres unmarked) [Compound 93, 1-(difluoromethyl)-3-(6-methyl-2-((1-(methylsulfonyl)piperidin-4-yl)amino)pyrido[3,4-d]pyrimidin-8-yl)cyclobutan-1-ol], the IC50 is below 200 nM against CDK1/Cyclin B1; below 200 nM on CDK4/Cyclin D1; below 200 nM at CDK6/Cyclin D3; 500 to 2000 nM in the test on MCF-7 cells (Homo sapiens, MCF7, 144 h); 500 to 2000 nM in the test with OVCAR-3 cells (Homo sapiens, 144 h).
